Data: ChEMBL document CHEMBL6096739, “The Myxobacterial Genus Archangium: A Prolific and Underexploited Source of Bioactive Secondary Metabolites” (J Med Chem, 2025)
Values after ≈ are worked out from the molar mass of the structure shown. Numbered stars: 1 amine (or outer) side, 2 acyl side, 3 side chain; on linkers, the order of the positions; unused ones are H or OH. Square brackets hold non-standard residues; d marks the D form. Peptide text beside a SMILES is read from it. X1 = COc1cccc2[nH]c(C)c(C[C@H](N[*:1])C(=O)[*:2])c12; dAla(ψthiazole) = C[C@@H](N[*:1])c1nc(C(=O)[*:2])cs1; Trp(4-OMe) = COc1cccc2[nH]cc(C[C@H](N)C(=O)O)c12; X2 = O=C(c1csc([C@@H](CO)N[*:1])n1)[*:2]; GlyΨ(Thz) = O=C(c1csc(CN[*:1])n1)[*:2]; dAbu = CC[C@@H](N)C(=O)O; Dha = C=C(N)C(=O)O; Sar = CNCC(=O)O

How the values were obtained:
[1] = tested on: Metschnikowia pulcherrima; assay: Antifungal activity against Metschnikowia pulcherrima DSM 70321; assay type: functional
[2] = Cytotoxicity against mouse L929 cells assessed reduction in cell viability incubated for 24 hrs by MTT assay; assay type: toxicity, cell-based
U-937 = assay: Cytotoxicity activity against human U-937 cells assessed as reduction in cell viability measured after 24 hrs by CCK-8 assay; assay type: functional, cell-based
[3] = Toxicity in po dosed rat assessed as lethal dose; assay type: organism-based; set-up: unit not given here; conditions: in vivo
Clostridium perfringens = assay: Antibacterial activity against Clostridium perfringens assessed as bacterial growth inhibition after 24 hrs by microdilution method; assay type: functional
[4] = tested on: Globisporangium debaryanum; assay: Antifungal activity against Pythium debaryanum DSM 62946; assay type: functional
Botrytis cinerea = assay: Antifungal activity against Botrytis cinerea; assay type: functional
KB = assay: Cytotoxicity against human KB cells assessed as reduction in cell viability measured after 72 hrs by MTT assay; assay type: functional, cell-based
Pseudomonas aeruginosa = assay: Antibacterial activity against Pseudomonas aeruginosa ATCC 27853 assessed as bacterial growth inhibition; assay type: functional, organism-based
HCT-116 = assay: Cytotoxicity against human HCT-116 cells assessed as reduction in cell growth measured after 72 hrs by MTT assay; assay type: functional, cell-based; conditions: HCT-116, 72 h

N#CCc1c[nH]c2ccccc12
MIC [1]: < 1 µg/mL

O=Cc1ccnc2ccccc12
MIC [1]: < 1 µg/mL

O=C(O)c1ccnc2ccccc12
MIC [1]: < 1 µg/mL

O=C(CO)c1c[nH]c2ccccc12
MIC [1]: < 1 µg/mL

CC1=C(C[C@H](O)/C=C\C=C\[C@@H](C)[C@@H](O)/C(C)=C/CC(C)C)OC(C)(O)C1=O (some centres not stated)
IC50 at 24 h [2]: 1000 nM

O/N=C/Cc1c[nH]c2ccccc12
MIC [1]: < 1 µg/mL

CC[C@H](C)[C@H](NC(=O)[C@H]1CCCCN1C)C(=O)N(COC(C)=O)[C@H](C[C@@H](OC(C)=O)c1nc(C(=O)N[C@@H](Cc2ccc(O)cc2)C[C@H](C)C(=O)O)cs1)C(C)C
IC50 (U-937; Homo sapiens, U-937, 24 h): 0.005 nM

C=C(NC(=O)/C(C)=C/C=C\CCCCCC(C)C)C(=O)N/C(=C\OC)C(=O)OC
IC50 at 24 h [2]: 3100 nM

C/C=C1/NC(=O)[C@@H]2CSC(=N2)[C@@H]2CCCN2C(=O)[C@@H](CC(C)C)NC(=O)[C@H](C)NC(=O)[C@@H](O)COC(=O)[C@H](C(C)C)N(C)C(=O)[C@H]([C@@H](C)O)NC(=O)[C@@H]2CCCCN2C1=O
LD50 [3]: 2.3

C=C/C=C(\C)[C@@H](O)CC[C@@H](C)/C=C/[C@@H]1CC[C@@H](C)C(=O)CC(=O)N[C@@H](C)CCC(=O)[C@@H](C)[C@H](O)[C@@H](C)/C=C(\C)C(=O)O1
MIC (Clostridium perfringens): 0.78 µg/mL (≈ 1.33 µM)

CCC(=O)OCN(C(=O)[C@@H](NC(=O)[C@H]1CCCCN1C)[C@@H](C)CC)[C@H](C[C@@H](OC(C)=O)c1nc(C(=O)N[C@@H](Cc2ccccc2)C[C@H](C)C(=O)O)cs1)C(C)C
IC50 (U-937; Homo sapiens, U-937, 24 h): 0.005 nM

COC(=O)/C=C(/OC)[C@H](C)[C@H](/C=C/c1csc(-c2csc(C3(C)CO3)n2)n1)OC (some centres not stated)
MIC [1]: 0.04 µg/mL (≈ 0.0916 µM)
MIC [4]: 0.0947 µM (≈ 0.0413 µg/mL)
MIC (Botrytis cinerea): 0.04 µg/mL (≈ 0.0916 µM)

CC[C@H](C)[C@H](NC(=O)[C@H]1CCCCN1C)C(=O)N(COC(C)=O)[C@H](C[C@@H](OC(C)=O)c1nc(C(=O)N[C@@H](Cc2ccccc2)C[C@H](C)C(=O)O)cs1)C(C)C
IC50 (U-937; Homo sapiens, U-937, 24 h): 0.005 nM

COC(=O)/C=C(/OC)[C@H](C)[C@H](/C=C/c1csc(C2CSC(C(C)C)=N2)n1)OC (some centres not stated)
MIC [1]: 0.04 µg/mL (≈ 0.0942 µM)
MIC [4]: 0.0947 µM (≈ 0.0402 µg/mL)
MIC (Botrytis cinerea): 0.04 µg/mL (≈ 0.0942 µM)

COC(=O)/C=C(/OC)[C@H](C)[C@H](/C=C/c1csc(-c2csc(C(C)=O)n2)n1)OC
MIC [1]: 0.04 µg/mL (≈ 0.0947 µM)
MIC [4]: 0.0947 µM (≈ 0.04 µg/mL)
MIC (Botrytis cinerea): 0.04 µg/mL (≈ 0.0947 µM)

O/N=C\c1ccnc2ccccc12
MIC [1]: < 1 µg/mL

C=C(NC(=O)/C(C)=C/C=C\CCCCCCC)C(=O)N/C(=C\OC)C(=O)OC
IC50 at 24 h [2]: 3100 nM

CC1=C(/C=C/C=C\C=C\[C@@H](C)[C@@H](O)/C(C)=C/CC(C)C)OC(C)(O)C1=O (some centres not stated)
IC50 at 24 h [2]: 1000 nM

C/C=C1\NC(=O)[C@H]2CSC(=N2)[C@@H]2C[C@@H](C)N2C(=O)[C@@H](CC(C)C)NC(=O)[C@H](C)NC(=O)[C@@H](O)COC(=O)[C@H](C(C)C)N(C)C(=O)[C@H]([C@@H](C)O)NC(=O)[C@@H]2CCCCN2C1=O
LD50 [3]: 2.3

C/C=C1\NC(=O)[C@H]2CSC(=N2)[C@@H]2C[C@@H](C)N2C(=O)[C@@H](CC(C)C)NC(=O)[C@H](C)NC(=O)[C@@H](O)COC(=O)[C@H](C(C)C)N(C)C(=O)[C@H]([C@@H](C)O)NC(=O)[C@@H]2CCCN2C1=O
LD50 [3]: 2.3

CCC(=O)OCN(C(=O)[C@@H](NC(=O)[C@H]1CCCCN1C)[C@@H](C)CC)[C@H](C[C@@H](OC(C)=O)c1nc(C(=O)N[C@@H](Cc2ccc(O)cc2)C[C@H](C)C(=O)O)cs1)C(C)C
IC50 (U-937; Homo sapiens, U-937, 24 h): 0.005 nM

COC(=O)/C=C(/OC)[C@H](C)[C@H](/C=C/c1csc(C2CSC(C3(C)CO3)=N2)n1)OC (some centres not stated)
MIC [1]: 0.04 µg/mL (≈ 0.0912 µM)
MIC [4]: 0.0947 µM (≈ 0.0415 µg/mL)
MIC (Botrytis cinerea): 0.04 µg/mL (≈ 0.0912 µM)

CCCC(=O)OCN(C(=O)[C@@H](NC(=O)[C@H]1CCCCN1C)[C@@H](C)CC)[C@H](C[C@@H](OC(C)=O)c1nc(C(=O)N[C@@H](Cc2ccccc2)C[C@H](C)C(=O)O)cs1)C(C)C
IC50 (U-937; Homo sapiens, U-937, 24 h): 0.005 nM

CC[C@H](C)[C@H](NC(=O)[C@H]1CCCCN1C)C(=O)N(COC(=O)C=C(C)C)[C@H](C[C@@H](OC(C)=O)c1nc(C(=O)N[C@@H](Cc2ccc(O)cc2)C[C@H](C)C(=O)O)cs1)C(C)C
IC50 (U-937; Homo sapiens, U-937, 24 h): 0.005 nM

OCc1ccnc2ccccc12
MIC [1]: < 1 µg/mL

C/C1=C\C=C=CCCC/C=C/[C@H]2O[C@@H](C(=O)O[C@H](C)[C@H]1O)[C@@H](O)[C@@H]2O
MIC (Clostridium perfringens): 2.5 µg/mL (≈ 7.13 µM)

C=C(NC(=O)/C(C)=C/C=C\CCCCC(C)C)C(=O)N/C(=C\OC)C(=O)OC
IC50 at 24 h [2]: 3100 nM

COCC(C)C1=NC(c2nc(/C=C/[C@H](OC)[C@@H](C)/C(=C\C(=O)OC)OC)cs2)CS1 (some centres not stated)
MIC [1]: 0.04 µg/mL (≈ 0.088 µM)
MIC [4]: 0.0947 µM (≈ 0.0431 µg/mL)
MIC (Botrytis cinerea): 0.04 µg/mL (≈ 0.088 µM)

C=C(C)C1=NC(c2nc(/C=C/[C@H](OC)[C@@H](C)/C(=C\C(=O)OC)OC)cs2)CS1 (some centres not stated)
MIC [1]: 0.04 µg/mL (≈ 0.0947 µM)
MIC [4]: 0.0947 µM (≈ 0.04 µg/mL)
MIC (Botrytis cinerea): 0.04 µg/mL (≈ 0.0947 µM)

C=C(C)c1nc(-c2nc(/C=C/[C@H](OC)[C@@H](C)/C(=C\C(=O)OC)OC)cs2)cs1
MIC [1]: 0.04 µg/mL (≈ 0.0951 µM)
MIC [4]: 0.0947 µM (≈ 0.0398 µg/mL)
MIC (Botrytis cinerea): 0.04 µg/mL (≈ 0.0951 µM)

C/C=C1/NC(=O)[C@@H]2CSC(=N2)[C@@H]2CCCN2C(=O)[C@@H](CC(C)C)NC(=O)[C@H](C)NC(=O)[C@@H](O)COC(=O)[C@H](C(C)C)N(C)C(=O)[C@H]([C@@H](C)O)NC(=O)[C@@H]2CCCN2C1=O
LD50 [3]: 2.3

C=C1NC(=O)[C@@H](C)NC(=O)CNC(=O)[C@H](Cc2c[nH]c3cccc(OC)c23)NC(=O)[C@H](Cc2c[nH]c3ccccc23)NC(=O)c2csc(n2)[C@@H](C)NC(=O)CN(C)C1=O (cyclo(W[Trp(4-OMe)]G[dA][Dha][Sar][dAla(ψthiazole)]))
IC50 (KB): 5 nM

C=C1NC(=O)[C@@H](C)NC(=O)CNC(=O)[C@H](Cc2c(C)[nH]c3cccc(OC)c23)NC(=O)[C@H](Cc2c[nH]c3ccccc23)NC(=O)c2csc(n2)[C@@H](C)NC(=O)CN(C)C1=O (cyclo(W[X1]G[dA][Dha][Sar][dAla(ψthiazole)]))
IC50 (KB): 5 nM

C=C1NC(=O)[C@@H](CC)NC(=O)CNC(=O)[C@H](Cc2c(C)[nH]c3cccc(OC)c23)NC(=O)[C@H](Cc2c[nH]c3ccccc23)NC(=O)c2csc(n2)[C@@H](C)NC(=O)CN(C)C1=O (cyclo(W[X1]G[dAbu][Dha][Sar][dAla(ψthiazole)]))
IC50 (KB): 5 nM

C=C1NC(=O)[C@@H](C)NC(=O)CNC(=O)[C@H](Cc2c[nH]c3cccc(OC)c23)NC(=O)[C@H](Cc2c[nH]c3ccccc23)NC(=O)c2csc(n2)CNC(=O)CN(C)C1=O (cyclo([Dha][Sar][GlyΨ(Thz)]W[Trp(4-OMe)]G[dA]))
IC50 (KB): 5 nM

C=C1NC(=O)[C@@H](C)NC(=O)CNC(=O)[C@H](Cc2c[nH]c3cccc(OC)c23)NC(=O)[C@H](Cc2c[nH]c3ccccc23)NC(=O)c2csc(n2)[C@@H](CO)NC(=O)CN(C)C1=O (cyclo([Dha][Sar][X2]W[Trp(4-OMe)]G[dA]))
IC50 (KB): 5 nM

C=C1NC(=O)[C@@H](CC)NC(=O)CNC(=O)[C@H](Cc2c[nH]c3cccc(OC)c23)NC(=O)[C@H](Cc2c[nH]c3ccccc23)NC(=O)c2csc(n2)[C@@H](CO)NC(=O)CN(C)C1=O (cyclo([Dha][Sar][X2]W[Trp(4-OMe)]G[dAbu]))
IC50 (KB): 5 nM

C=C1NC(=O)[C@@H](CC)NC(=O)CNC(=O)[C@H](Cc2c[nH]c3cccc(OC)c23)NC(=O)[C@H](Cc2c[nH]c3ccccc23)NC(=O)c2csc(n2)[C@@H](C)NC(=O)CN(C)C1=O (cyclo([Dha][Sar][dAla(ψthiazole)]W[Trp(4-OMe)]G[dAbu]))
IC50 (KB): 5 nM
IC50 (Pseudomonas aeruginosa): 0.05 µg/mL (≈ 0.0596 µM)

CCCC(=O)OCN(C(=O)[C@@H](NC(=O)[C@H]1CCCCN1C)[C@@H](C)CC)[C@H](C[C@@H](OC(C)=O)c1nc(C(=O)N[C@@H](Cc2ccc(O)cc2)C[C@H](C)C(=O)O)cs1)C(C)C [TUBULYSIN B]
IC50 (U-937; Homo sapiens, U-937, 24 h): 0.005 nM

CC[C@H](C)[C@H](NC(=O)[C@H]1CCCCN1C)C(=O)N(COC(=O)CC(C)C)[C@H](C[C@@H](OC(C)=O)c1nc(C(=O)N[C@@H](Cc2ccccc2)C[C@H](C)C(=O)O)cs1)C(C)C [TUBULYSIN D]
IC50 (U-937; Homo sapiens, U-937, 24 h): 0.005 nM
IC50 (HCT-116): 0.003 nM

CC[C@H](C)[C@H](NC(=O)[C@H]1CCCCN1C)C(=O)N(COC(=O)CC(C)C)[C@H](C[C@@H](OC(C)=O)c1nc(C(=O)N[C@@H](Cc2ccc(O)cc2)C[C@H](C)C(=O)O)cs1)C(C)C [TUBULYSIN-A]
IC50 (U-937; u-937): 0.005 nM
